Laboratory results as given in US11331299B2, “Medicinal use of serrulatane diterpenes” (The University of Sydney, priority 2016, dated 2022).

Key:
Experiment in all cases: biochemical
Type in all cases: binding
[1] = target: receptors (Bioprint panel) (Rattus norvegicus, UniProt P28564); settings: read-out: % Inhibition of Control Specific Binding
[2] = target: receptors (Bioprint panel) (Homo sapiens, UniProt P25929); settings: NE[…] Y1 (h) (agonist radioligand); 10 μM; read-out: % Inhibition of Control Specific Binding
[3] = target: receptors (Bioprint panel) (Homo sapiens, UniProt P21554); settings: CANNABINOID CB1 (h) (agonist radioligand); 10 μM; read-out: % Inhibition of Control Specific Binding
[4] = target: receptors (Bioprint panel) (Homo sapiens, UniProt P11229); settings: […] M1 (h) (antagonist radioligand); 10 μM; read-out: % Inhibition of Control Specific Binding
[5] = target: receptors (Bioprint panel) (Homo sapiens, UniProt P31391); settings: SOMASTATIN sst4 (h) (agonist radioligand); 10 μM; read-out: % Inhibition of Control Specific Binding
[6] = target: receptors (Bioprint panel) (Homo sapiens, UniProt Q01959); settings: dopamine transporter (h) (antagonist radioligand); 10 μM; read-out: % Inhibition of Control Specific Binding
[7] = tested on: receptors (Bioprint panel); settings: 10 μM
[8] = target: receptors (Bioprint panel) (Homo sapiens, UniProt P43116); settings: PROSTANOID EP2 (h) (agonist radioligand); 10 μM; read-out: % Inhibition of Control Specific Binding
[9] = target: receptors (Bioprint panel) (Homo sapiens, UniProt Q15722); settings: read-out: % Inhibition of Control Specific Binding
[10] = target: receptors (Bioprint panel) (Homo sapiens, UniProt P41146); settings: OPIOD & OPIOID-LIKE NOP (ORL1) (h) (agonist radioligand); 10 μM; read-out: % Inhibition of Control Specific Binding
[11] = target: receptors (Bioprint panel) (Homo sapiens, UniProt P43088); settings: […] (h) (agonist radioligand); 10 μM; read-out: % Inhibition of Control Specific Binding
[12] = target: receptors (Bioprint panel) (Homo sapiens, UniProt P34969); settings: read-out: % Inhibition of Control Specific Binding
[13] = target: receptors (Bioprint panel) (Rattus norvegicus, UniProt P34975); settings: OPIOD & OPIOID-LIKE kappa (KOP) (agonist radioligand); 10 μM; read-out: % Inhibition of Control Specific Binding
[14] = target: receptors (Bioprint panel) (Homo sapiens, UniProt P41595); settings: read-out: % Inhibition of Control Specific Binding
[15] = target: receptors (Bioprint panel) (Homo sapiens, UniProt P47871); settings: glucagon (h) (agonist radioligand); 10 μM; read-out: % Inhibition of Control Specific Binding
[16] = target: receptors (Bioprint panel) (Rattus norvegicus, UniProt P28565); settings: read-out: % Inhibition of Control Specific Binding
[17] = target: receptors (Bioprint panel) (Homo sapiens, UniProt P08588); settings: […] beta 1 (h) (agonist radioligand); 10 μM; read-out: % Inhibition of Control Specific Binding
[18] = target: receptors (Bioprint panel) (Homo sapiens, UniProt P08913); settings: […] alpha 2A (h) (antagonist radioligand); 10 μM; read-out: % Inhibition of Control Specific Binding
[19] = target: receptors (Bioprint panel) (Homo sapiens, UniProt P25105); settings: […] ACTIVATED FACTOR PAF (h) (agonist radioligand); 10 μM; read-out: % Inhibition of Control Specific Binding
[20] = target: receptors (Bioprint panel) (Homo sapiens, UniProt Q9GZV3); settings: choline transporter (CHT1) (h) (antagonist radioligand); 10 μM; read-out: % Inhibition of Control Specific Binding
[21] = target: receptors (Bioprint panel) (Homo sapiens, UniProt P30542); settings: ADENOSINE A1 (h) (agonist radioligand); 10 μM; read-out: % Inhibition of Control Specific Binding
[22] = target: receptors (Bioprint panel) (Homo sapiens, UniProt P02708); settings: NICOTINIC […] N muscle-type (h) (antagonist radioligand); 10 μM; read-out: % Inhibition of Control Specific Binding
[23] = target: receptors (Bioprint panel) (Homo sapiens, UniProt P10275); settings: 10 μM
[24] = target: receptors (Bioprint panel) (Homo sapiens, UniProt P28223); settings: read-out: % Inhibition of Control Specific Binding
[25] = target: receptors (Bioprint panel) (Homo sapiens, UniProt P35372); settings: OPIOD & OPIOID-LIKE mu (MOP) (h) (agonist radioligand); 10 μM; read-out: % Inhibition of Control Specific Binding
[26] = target: receptors (Bioprint panel) (Homo sapiens, UniProt P04150); settings: read-out: % Inhibition of Control Specific Binding
[27] = target: receptors (Bioprint panel) (Rattus norvegicus, UniProt P35439); settings: read-out: % Inhibition of Control Specific Binding

receptors (Bioprint panel) (Rattus norvegicus, UniProt P28565), sequence (P28565 whole entry): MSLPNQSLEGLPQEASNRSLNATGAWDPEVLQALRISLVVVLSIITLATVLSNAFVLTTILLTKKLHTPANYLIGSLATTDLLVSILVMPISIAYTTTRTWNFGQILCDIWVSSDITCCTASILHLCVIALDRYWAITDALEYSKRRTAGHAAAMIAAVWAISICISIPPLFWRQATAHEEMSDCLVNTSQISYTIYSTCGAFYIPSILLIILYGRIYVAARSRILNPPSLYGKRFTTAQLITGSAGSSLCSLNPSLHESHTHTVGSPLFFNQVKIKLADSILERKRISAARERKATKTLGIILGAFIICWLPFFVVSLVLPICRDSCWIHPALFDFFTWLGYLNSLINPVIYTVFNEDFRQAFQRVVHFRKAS
receptors (Bioprint panel) (Homo sapiens, UniProt P43116), sequence (P43116 whole entry): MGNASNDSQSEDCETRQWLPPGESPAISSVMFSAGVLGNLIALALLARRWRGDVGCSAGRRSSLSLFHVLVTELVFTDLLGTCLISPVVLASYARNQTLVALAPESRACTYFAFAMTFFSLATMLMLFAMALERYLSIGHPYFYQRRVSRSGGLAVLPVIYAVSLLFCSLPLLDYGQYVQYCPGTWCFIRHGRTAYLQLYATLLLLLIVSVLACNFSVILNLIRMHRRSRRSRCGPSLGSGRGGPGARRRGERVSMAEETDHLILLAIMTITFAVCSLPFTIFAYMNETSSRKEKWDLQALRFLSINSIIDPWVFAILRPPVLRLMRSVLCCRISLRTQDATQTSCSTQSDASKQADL
receptors (Bioprint panel) (Homo sapiens, UniProt P30542), sequence (P30542 whole entry): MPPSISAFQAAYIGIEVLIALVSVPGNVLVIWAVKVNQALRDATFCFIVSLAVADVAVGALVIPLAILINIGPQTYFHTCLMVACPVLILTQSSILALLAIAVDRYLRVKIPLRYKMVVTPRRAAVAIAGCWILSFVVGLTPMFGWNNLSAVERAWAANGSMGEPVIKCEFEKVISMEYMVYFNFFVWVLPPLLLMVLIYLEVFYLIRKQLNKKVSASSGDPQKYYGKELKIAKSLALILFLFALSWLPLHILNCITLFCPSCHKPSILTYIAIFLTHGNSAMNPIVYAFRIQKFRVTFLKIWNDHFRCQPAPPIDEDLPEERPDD
receptors (Bioprint panel) (Homo sapiens, UniProt P43088), sequence (P43088 whole entry): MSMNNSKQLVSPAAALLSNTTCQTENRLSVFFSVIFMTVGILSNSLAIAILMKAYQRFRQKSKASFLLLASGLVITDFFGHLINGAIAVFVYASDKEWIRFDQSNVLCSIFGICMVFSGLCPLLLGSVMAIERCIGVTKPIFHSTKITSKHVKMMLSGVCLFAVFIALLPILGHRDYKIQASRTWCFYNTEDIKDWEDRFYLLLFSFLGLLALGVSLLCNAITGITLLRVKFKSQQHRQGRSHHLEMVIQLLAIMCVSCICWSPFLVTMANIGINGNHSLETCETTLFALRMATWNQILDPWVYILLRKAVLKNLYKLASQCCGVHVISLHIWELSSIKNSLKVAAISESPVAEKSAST
receptors (Bioprint panel) (Homo sapiens, UniProt P28223), sequence (P28223 whole entry): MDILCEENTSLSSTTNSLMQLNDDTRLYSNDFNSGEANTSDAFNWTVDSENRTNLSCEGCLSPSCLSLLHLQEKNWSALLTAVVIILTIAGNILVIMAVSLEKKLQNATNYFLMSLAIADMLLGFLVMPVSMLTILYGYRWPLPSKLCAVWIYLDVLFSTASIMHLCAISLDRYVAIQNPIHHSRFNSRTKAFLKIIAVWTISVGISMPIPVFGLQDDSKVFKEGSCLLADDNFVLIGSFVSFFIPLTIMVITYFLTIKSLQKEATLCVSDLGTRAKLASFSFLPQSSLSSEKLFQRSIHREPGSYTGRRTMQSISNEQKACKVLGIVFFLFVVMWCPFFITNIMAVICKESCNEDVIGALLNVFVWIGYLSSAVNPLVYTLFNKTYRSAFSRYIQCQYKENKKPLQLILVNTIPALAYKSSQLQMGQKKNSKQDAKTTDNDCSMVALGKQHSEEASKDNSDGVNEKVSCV
receptors (Bioprint panel) (Homo sapiens, UniProt P25929), sequence (P25929 whole entry): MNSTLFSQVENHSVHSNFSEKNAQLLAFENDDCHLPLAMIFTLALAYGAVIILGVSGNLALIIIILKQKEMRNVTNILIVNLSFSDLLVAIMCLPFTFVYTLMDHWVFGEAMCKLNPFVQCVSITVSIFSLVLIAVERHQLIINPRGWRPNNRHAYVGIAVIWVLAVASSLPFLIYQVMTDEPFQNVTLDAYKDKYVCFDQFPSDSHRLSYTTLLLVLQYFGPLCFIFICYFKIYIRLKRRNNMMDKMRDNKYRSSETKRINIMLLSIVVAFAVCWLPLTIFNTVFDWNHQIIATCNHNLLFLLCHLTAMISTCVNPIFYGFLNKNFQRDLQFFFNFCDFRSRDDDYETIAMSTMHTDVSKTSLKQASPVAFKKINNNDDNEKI
receptors (Bioprint panel) (Homo sapiens, UniProt P10275), sequence (P10275 whole entry T878A, form open): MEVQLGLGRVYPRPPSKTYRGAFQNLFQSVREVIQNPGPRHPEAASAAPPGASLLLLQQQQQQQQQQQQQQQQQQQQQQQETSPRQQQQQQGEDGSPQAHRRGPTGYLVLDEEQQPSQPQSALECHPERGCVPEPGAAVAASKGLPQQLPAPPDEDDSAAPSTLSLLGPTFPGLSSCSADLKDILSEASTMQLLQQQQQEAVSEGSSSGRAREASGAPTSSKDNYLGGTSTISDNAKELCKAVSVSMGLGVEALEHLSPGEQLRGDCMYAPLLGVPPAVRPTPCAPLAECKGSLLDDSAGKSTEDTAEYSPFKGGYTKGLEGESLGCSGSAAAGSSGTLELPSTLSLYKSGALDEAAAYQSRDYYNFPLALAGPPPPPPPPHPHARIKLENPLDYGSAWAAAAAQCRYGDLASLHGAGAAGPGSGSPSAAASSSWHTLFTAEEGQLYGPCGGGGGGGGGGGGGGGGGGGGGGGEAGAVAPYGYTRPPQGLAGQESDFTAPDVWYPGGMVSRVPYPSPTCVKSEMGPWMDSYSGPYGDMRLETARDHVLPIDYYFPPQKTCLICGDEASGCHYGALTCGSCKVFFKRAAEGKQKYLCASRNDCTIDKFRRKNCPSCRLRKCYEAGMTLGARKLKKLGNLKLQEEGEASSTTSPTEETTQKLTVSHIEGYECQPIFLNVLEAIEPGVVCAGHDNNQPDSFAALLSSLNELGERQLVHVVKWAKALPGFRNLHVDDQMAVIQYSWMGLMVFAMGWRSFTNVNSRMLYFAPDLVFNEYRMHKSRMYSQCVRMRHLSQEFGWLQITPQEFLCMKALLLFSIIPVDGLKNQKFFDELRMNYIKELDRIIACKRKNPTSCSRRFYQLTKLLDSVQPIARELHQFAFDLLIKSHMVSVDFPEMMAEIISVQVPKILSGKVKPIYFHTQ
receptors (Bioprint panel) (Homo sapiens, UniProt P34969), sequence (P34969 whole entry): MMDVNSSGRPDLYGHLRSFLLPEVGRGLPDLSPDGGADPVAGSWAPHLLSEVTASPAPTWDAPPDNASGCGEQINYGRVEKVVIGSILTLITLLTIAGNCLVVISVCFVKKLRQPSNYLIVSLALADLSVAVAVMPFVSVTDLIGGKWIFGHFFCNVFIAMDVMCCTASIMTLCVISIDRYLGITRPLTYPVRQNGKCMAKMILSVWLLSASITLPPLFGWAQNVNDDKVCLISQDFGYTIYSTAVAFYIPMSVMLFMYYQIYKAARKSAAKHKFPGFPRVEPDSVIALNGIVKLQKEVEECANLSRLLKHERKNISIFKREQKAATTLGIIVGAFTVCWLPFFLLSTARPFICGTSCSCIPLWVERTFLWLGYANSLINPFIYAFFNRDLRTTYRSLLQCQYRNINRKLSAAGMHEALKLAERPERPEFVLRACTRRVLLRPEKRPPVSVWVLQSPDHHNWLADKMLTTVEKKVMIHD
receptors (Bioprint panel) (Homo sapiens, UniProt P35372), sequence (P35372 whole entry): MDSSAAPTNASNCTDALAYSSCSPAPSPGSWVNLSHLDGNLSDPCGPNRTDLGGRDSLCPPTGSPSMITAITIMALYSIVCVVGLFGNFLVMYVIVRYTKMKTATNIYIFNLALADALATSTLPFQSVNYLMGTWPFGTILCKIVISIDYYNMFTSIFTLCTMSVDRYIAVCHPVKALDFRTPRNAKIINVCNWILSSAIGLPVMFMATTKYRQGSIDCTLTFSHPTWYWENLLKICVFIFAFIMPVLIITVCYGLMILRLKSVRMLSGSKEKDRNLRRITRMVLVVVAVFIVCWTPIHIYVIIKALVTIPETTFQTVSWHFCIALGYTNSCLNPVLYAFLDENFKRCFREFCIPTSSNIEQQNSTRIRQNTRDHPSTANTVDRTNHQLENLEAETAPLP
receptors (Bioprint panel) (Homo sapiens, UniProt Q01959), sequence (Q01959 whole entry): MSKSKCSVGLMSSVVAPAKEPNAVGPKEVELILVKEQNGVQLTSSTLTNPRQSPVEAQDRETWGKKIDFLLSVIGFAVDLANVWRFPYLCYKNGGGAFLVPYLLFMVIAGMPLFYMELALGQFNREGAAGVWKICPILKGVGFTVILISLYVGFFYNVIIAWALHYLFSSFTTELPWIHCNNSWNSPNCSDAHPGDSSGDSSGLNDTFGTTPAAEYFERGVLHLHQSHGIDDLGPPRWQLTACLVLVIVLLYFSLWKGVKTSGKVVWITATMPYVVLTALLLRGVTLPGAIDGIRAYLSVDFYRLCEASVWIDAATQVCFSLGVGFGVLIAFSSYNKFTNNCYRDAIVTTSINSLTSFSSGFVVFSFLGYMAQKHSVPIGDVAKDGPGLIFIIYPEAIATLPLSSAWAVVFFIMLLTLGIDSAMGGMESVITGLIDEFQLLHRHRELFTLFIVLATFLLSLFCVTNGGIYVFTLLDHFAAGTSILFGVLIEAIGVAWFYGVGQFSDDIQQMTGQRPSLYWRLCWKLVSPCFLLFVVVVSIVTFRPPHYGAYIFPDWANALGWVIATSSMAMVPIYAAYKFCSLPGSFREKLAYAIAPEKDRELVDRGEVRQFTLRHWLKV

Which inhibition at 10 µM [1] does the source give for CC(C)=CCC[C@H](CO)[C@@H]1CC[C@@H](C)c2c1cc(C)c(O)c2O [Compound 1, 7,8,18-trihydroxyserrulat-14-ene] here?
Its inhibition at 10 µM is 42%.

And the inhibition at 10 µM [2]?
The inhibition at 10 µM was 29%.

And the inhibition at 10 µM [3]?
The inhibition at 10 µM was 46%.

What about the inhibition at 10 µM [4] of the same compound?
Its inhibition at 10 µM is 8%.

What about the inhibition at 10 µM [5] of the same compound?
The inhibition at 10 µM was 40%.

And the inhibition at 10 µM [6]?
The inhibition at 10 µM was 63%.

And the “% Inhibition of Control Specific Binding” value [7]?
Its value is 11%.

And the “% Inhibition of Control Specific Binding” value ([7]; CYTOKINES TNF-alpha (h) (agonist radioligand))?
The value was −23%.

And the “% Inhibition of Control Specific Binding” value ([7]; Ca2+ channel (L, dihydropyridine site) (antagonist radioligand))?
The value was 55%.

And the “% Inhibition of Control Specific Binding” value ([7]; Ca2+ channel (L, diltiazem site) (benzothiazepines) (antagonist radioligand))?
Its value is −30%.

What about the “% Inhibition of Control Specific Binding” value ([7]; Ca2+ channel (L, verapamil site) (phenylalkylamine) (antagonist radioligand)) of the same compound?
The value was −4%.

And the “% Inhibition of Control Specific Binding” value ([7]; Cl- channel (GABA-gated) (antagonist radioligand))?
Its value is 42%.

What about the “% Inhibition of Control Specific Binding” value ([7]; GABA CHANNELS BZD (central) (agonist radioligand)) of the same compound?
Its value is −31%.

And the “% Inhibition of Control Specific Binding” value ([7]; GABA transporter (antagonist radioligand))?
The value was −10%.

And the “% Inhibition of Control Specific Binding” value ([7]; GLUTAMATE CHANNELS AMPA (agonist radioligand))?
The value was 4%.

And the “% Inhibition of Control Specific Binding” value ([7]; GLUTAMATE CHANNELS NMDA (antagonist radioligand))?
The value was 9%.

What about the “% Inhibition of Control Specific Binding” value ([7]; GLUTAMATE CHANNELS PCP (antagonist radioligand)) of the same compound?
Its value is −11%.

What about the “% Inhibition of Control Specific Binding” value ([7]; GLUTAMATE CHANNELS kainate (agonist radioligand)) of the same compound?
The value was 15%.

What about the “% Inhibition of Control Specific Binding” value ([7]; Na+ channel (site 2) (antagonist radioligand)) of the same compound?
The value was 48%.

What about the “% Inhibition of Control Specific Binding” value ([7]; SKCa channel (antagonist radioligand)) of the same compound?
Its value is 14%.

And the “% Inhibition of Control Specific Binding” value ([7]; Thyroid Hormone)?
The value was 9%.

What about the inhibition at 10 µM [8] of the same compound?
Its inhibition at 10 µM is 53%.

And the inhibition at 10 µM [9]?
Its inhibition at 10 µM is 27%.

What about the inhibition at 10 µM [10] of the same compound?
Its inhibition at 10 µM is -4%.

What about the inhibition at 10 µM [11] of the same compound?
The inhibition at 10 µM was 54%.

What about the inhibition at 10 µM [12] of the same compound?
The inhibition at 10 µM was 14%.

And the inhibition at 10 µM [13]?
The inhibition at 10 µM was 39%.

And the inhibition at 10 µM [14]?
Its inhibition at 10 µM is 70%.

What about the inhibition at 10 µM [15] of the same compound?
The inhibition at 10 µM was -20%.

And the inhibition at 10 µM [16]?
Its inhibition at 10 µM is 18%.

What about the inhibition at 10 µM [17] of the same compound?
Its inhibition at 10 µM is 19%.

And the inhibition at 10 µM [18]?
The inhibition at 10 µM was 35%.

And the inhibition at 10 µM [19]?
Its inhibition at 10 µM is 39%.

What about the inhibition at 10 µM [20] of the same compound?
The inhibition at 10 µM was -41%.

What about the inhibition at 10 µM [21] of the same compound?
Its inhibition at 10 µM is 10%.

And the inhibition at 10 µM [22]?
The inhibition at 10 µM was 1%.

And the “% Inhibition of Control Specific Binding” value [23]?
Its value is −9%.

What about the inhibition at 10 µM [24] of the same compound?
The inhibition at 10 µM was 9%.

What about the inhibition at 10 µM [25] of the same compound?
Its inhibition at 10 µM is 43%.

What about the inhibition at 10 µM [26] of the same compound?
Its inhibition at 10 µM is 47%.

And the inhibition at 10 µM [27]?
The inhibition at 10 µM was 4%.
